Results from patent US7045532B2 (Millennium Pharmaceuticals, Inc., priority 1999, dated 2006).
pKi: −log10 of the molar value. Where two headings read alike, the source gives them in different places.

Key:
ACE-2 = molecular target: T1, ACE-2 (Homo sapiens, UniProt Q9BYF1); assay: ACE-2 Competitive Substrate Assay (ACS Assay); type: biochemical
T1 construct: a stop codon inserted after the serine immediately preceding the transmembrane domain; made in house; host or cells: CHO K1 cells (transient transfection, purified from conditioned medium)
T1 sequence (Q9BYF1 18-740 limits assumed): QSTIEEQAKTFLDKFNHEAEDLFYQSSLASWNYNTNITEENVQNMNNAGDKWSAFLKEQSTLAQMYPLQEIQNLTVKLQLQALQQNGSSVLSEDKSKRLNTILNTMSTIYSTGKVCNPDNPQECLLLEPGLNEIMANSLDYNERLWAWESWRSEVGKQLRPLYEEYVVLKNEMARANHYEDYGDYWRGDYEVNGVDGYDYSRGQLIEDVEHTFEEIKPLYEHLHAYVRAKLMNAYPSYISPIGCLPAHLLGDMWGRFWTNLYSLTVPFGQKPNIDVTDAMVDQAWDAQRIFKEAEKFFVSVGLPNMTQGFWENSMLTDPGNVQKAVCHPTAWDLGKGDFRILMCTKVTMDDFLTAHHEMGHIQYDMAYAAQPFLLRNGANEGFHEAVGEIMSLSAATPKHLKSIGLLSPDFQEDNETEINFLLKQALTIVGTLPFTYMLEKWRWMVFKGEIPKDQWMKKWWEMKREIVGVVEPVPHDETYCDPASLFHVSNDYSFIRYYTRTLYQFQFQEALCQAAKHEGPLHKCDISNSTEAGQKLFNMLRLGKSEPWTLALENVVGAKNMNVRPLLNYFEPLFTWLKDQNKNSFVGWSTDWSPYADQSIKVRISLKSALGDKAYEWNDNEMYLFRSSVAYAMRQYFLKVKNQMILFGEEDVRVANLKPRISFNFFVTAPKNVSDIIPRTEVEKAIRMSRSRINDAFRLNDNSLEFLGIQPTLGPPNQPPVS

ACE (Sigma, A2580) = molecular target: T2, ACE (Sigma, A2580) (Sus scrofa, UniProt F1RRW5); assay: ACE enzymatic activity assay; type: biochemical, porcine; conditions: Ki class, compounds tested in 5% DMSO
T2 construct: ACE from porcine kidney; purchased Sigma A2580; host or cells: porcine kidney
T2 sequence (F1RRW5 34-1309): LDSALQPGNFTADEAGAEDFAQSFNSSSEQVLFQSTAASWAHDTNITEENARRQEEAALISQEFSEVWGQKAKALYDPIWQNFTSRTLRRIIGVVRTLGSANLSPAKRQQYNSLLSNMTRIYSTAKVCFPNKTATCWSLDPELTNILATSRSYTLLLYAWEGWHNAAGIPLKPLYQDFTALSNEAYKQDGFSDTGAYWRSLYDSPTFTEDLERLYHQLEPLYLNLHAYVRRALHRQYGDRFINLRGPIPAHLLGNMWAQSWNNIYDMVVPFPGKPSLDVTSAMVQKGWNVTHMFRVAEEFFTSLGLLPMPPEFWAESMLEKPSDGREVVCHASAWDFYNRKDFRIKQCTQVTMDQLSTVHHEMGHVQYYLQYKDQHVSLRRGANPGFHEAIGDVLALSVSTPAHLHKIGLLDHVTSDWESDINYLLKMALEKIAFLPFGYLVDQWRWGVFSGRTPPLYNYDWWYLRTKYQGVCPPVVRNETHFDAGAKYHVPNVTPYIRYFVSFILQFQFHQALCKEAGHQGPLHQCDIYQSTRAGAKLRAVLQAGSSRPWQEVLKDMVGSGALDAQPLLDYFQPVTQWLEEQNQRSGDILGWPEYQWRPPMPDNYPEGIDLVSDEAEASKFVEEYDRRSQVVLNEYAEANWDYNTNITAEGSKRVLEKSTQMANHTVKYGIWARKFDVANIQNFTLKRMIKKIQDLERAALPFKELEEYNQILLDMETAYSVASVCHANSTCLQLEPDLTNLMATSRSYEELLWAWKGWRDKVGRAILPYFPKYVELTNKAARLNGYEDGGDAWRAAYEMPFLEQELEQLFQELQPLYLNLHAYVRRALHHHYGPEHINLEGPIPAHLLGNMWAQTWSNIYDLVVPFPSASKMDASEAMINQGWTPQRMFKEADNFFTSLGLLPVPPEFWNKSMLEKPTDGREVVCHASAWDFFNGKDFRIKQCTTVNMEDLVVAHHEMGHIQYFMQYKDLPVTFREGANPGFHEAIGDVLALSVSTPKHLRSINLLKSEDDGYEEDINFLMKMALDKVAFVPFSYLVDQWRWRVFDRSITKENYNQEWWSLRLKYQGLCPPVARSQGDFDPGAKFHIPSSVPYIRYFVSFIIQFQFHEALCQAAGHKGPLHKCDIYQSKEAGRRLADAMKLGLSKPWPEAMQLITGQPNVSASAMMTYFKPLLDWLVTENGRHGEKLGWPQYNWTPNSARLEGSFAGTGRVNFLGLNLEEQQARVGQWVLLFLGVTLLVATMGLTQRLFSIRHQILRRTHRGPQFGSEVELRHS
Method: ACE (Sigma, A2580) enzymatic activity was assayed in microtiter plates using the following protocol. ACE assay buffer was made from 50 mM HEPES (Sigma), 300 mM sodium chloride (Sigma), and 0.01% Brij-35 (Pierce Chemical Co) at pH 7.5.
Reactions were mixed and incubated at 25° C. Enzymatic cleavage of the substrate is marked by a fluorescence change (excitation 330 nm, emission 415 nm).
The activity of the test compounds was investigated using the procedure outlined above. The compounds were tested in 5% DMSO. Enzyme activity was measured at 12 compound concentrations. […]. […]

Carboxypeptidase A = molecular target: T3, Carboxypeptidase A (Bos taurus, UniProt P00730); assay: Carboxypeptidase A activity assay; type: biochemical; conditions: Ki class, compounds tested in 5% DMSO
T3 sequence (P00730 111-419): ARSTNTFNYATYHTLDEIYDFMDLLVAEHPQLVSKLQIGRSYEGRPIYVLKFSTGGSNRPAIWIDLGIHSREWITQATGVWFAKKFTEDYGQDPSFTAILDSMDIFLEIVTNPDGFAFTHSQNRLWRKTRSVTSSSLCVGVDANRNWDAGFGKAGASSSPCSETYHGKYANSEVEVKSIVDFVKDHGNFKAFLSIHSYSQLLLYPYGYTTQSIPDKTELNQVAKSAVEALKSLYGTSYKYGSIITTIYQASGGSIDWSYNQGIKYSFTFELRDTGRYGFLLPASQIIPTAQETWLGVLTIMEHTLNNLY
Method: Carboxypeptidase A activity was measured using a literature assay (Holmquist and Riordan, “Carboxypeptidase A,” Methods of Enzymatic Analysis (1984) p. 44–60). The assay was adapted to a 96 well format by adjusting to a 300 μL assay volume and using ultra-thin bottom plates (Costar/Corning) read at 328 nm. The assay was stopped using EDTA.
The activity of the test compounds was investigated using the procedure outlined above. The compounds were tested in 5% DMSO. Enzyme activity was measured at 12 compound concentrations. The Ki was calculated by using Ki=Kiapp/(1+[S]/Km).
To determine whether a test compound is capable of modulating carboxypeptidase A's ability to cleave a substrate the method described in Holmquist and Riordan, Carboxypeptidase A, p44–60, Peptidase and Their Inhibitors in Method of Enzymatic Analysis (1984), may be used.
The assay may be adapted to a 96 well format by adjusting to a 300 μl assay volume and using ultrathin bottom plates (Costar/Coming) read at 328 nm with a final assay volume of 300 μl. The assay may be stopped using EDTA.

[1] = Ki class, compounds tested in 5% DMSO, 12 concentrations, read-out: Human ACE-2 Activity

pKi (ACE (Sigma, A2580); 12 concentrations)	pKi (Carboxypeptidase A; 12 concentrations)	Compound	also measured
–	–	CC(C)CC(N[C@@H](Cc1cncn1Cc1ccc(C#N)cc1)C(=O)O)C(=O)O (single isomer, unassigned) [HA, 2-[1-Carboxy-2-[3-(4-cyano-benzyl)-3H-imidazol-4-yl]-ethylamino)4-methyl-pentanoic acid]	pKi (ACE-2; Ki class, compounds tested in 5% DMSO, 12 compound concentrations, Ki=Kiapp/(1+[S]/Km), read-out: Human ACE-2 Activity): > 7.00; pKi (ACE-2; Table 3, very good ACE-2 inhibiting compounds, species not given, read-out: ACE-2 Activity, Ki): 7.00 to 7.30; pKi (ACE (Sigma, A2580); 12 compound concentrations): 4.30 to 5.00; pKi (Carboxypeptidase A; 12 compound concentrations): 4.30 to 5.00
< 4.30	4.30 to 5.00	O=C(O)C(Cc1ccccc1)NC(C(=O)O)c1ccccc1 (stereo not shown) [BO, 2-[(Carboxy-phenyl-methyl)-amino]-3-phenyl-propionic acid]	pKi (ACE-2; [1]): < 6.30
< 4.30	< 4.30	CCCC(N[C@@H](CC(C)C)C(=O)O)C(=O)O (stereo in doubt) [AQ, 2-(1-Carboxy-butylamino)-4-methyl-pentanoic acid]	pKi (ACE-2; [1]): < 6.30
< 4.30	< 4.30	CCCCC(N[C@@H](CC(C)C)C(=O)O)C(=O)O (stereo partly shown) [Q, 2-(1-Carboxy-3-methyl-butylamino)-hexanoic acid]	pKi (ACE-2; [1]): < 6.30
< 4.30	< 4.30	CC(C)CC(N[C@@H](Cc1cnc[nH]1)C(=O)NCCc1ccccc1)C(=O)O (single isomer, unassigned) [FX, 2-[2-(3H-Imidazol-4-yl)-1-phenethylcarbamoyl-ethylamino]-4-methyl-pentanoic acid]	–
4.30 to 5.00	< 4.30	CC(C)CC(N[C@H](Cc1c[nH]cn1)C(=O)O)C(=O)O (single isomer, unassigned) [BJ, 2-[1-Carboxy-2-(1H-imidazol-4-yl)-ethylamino]4-methyl-pentanoic acid]	–
< 4.30	< 4.30	CCCCC(CC(=O)O)N[C@@H](Cc1c[nH]cn1)C(=O)O (single isomer, unassigned) [ET, 3-[1-Carboxy-2-(1H-imidazol-4-yl)-ethylamino]heptanoic acid]	–
4.30 to 5.00	< 4.30	CC(C)CC(N[C@H](Cc1cn(Cc2ccccc2)cn1)C(=O)O)C(=O)O (stereo partly shown) [CX, 2-[2-(1-Benzyl-1H-imidazol-4-yl)-1-carboxy-ethylamino]-4-methyl-pentanoic acid]	–
< 4.30	< 4.30	CC(C)CC(N[C@@H](Cc1c[nH]cn1)C(=O)Nc1ccc([N+](=O)[O-])cc1)C(=O)O (single isomer, unassigned) [EY, 2-[2-(1H-Imidazol-4-yl)-1-(4-nitro-phenylcarbamoyl)ethylamino]-4-methyl-pentanoic acid]	–
< 4.30	< 4.30	CC(C)CC(N[C@@H](Cc1cncn1COCc1ccccc1)C(=O)NCCc1ccccc1)C(=O)O (single isomer, unassigned) [FN, 2-[2-(3-Benzyloxymethyl-3H-imidazol-4-yl)-1-phenethylcarbamoyl-ethylamino]-4-methyl-pentanoic acid]	–
4.30 to 5.00	4.30 to 5.00	CC(C)CC(N[C@@H](Cc1cncn1Cc1cccc2ccccc12)C(=O)O)C(=O)O (single isomer, unassigned) [GL, 2-[1-Carboxy-2-(3-naphthalen-1-ylmethyl-3Himidazol-4-yl)-ethylamino]4-methyl-pentanoic acid]	–
< 4.30	< 4.30	CC(C)CC(N[C@@H](CNc1ccccc1)C(=O)O)C(=O)O (single isomer, unassigned) [FJ, 2-(1-Carboxy-2-phenylamino-ethylamino)-4-methyl-pentanoic acid]	–
< 4.30	< 4.30	CC(C)CC(N[C@@H](Cc1cncn1Cc1ccc(C(=O)O)cc1)C(=O)O)C(=O)O (single isomer, unassigned) [GP, 4-[5-[2-Carboxy-2-(1-carboxy-3-methyl-butylamino)-ethyl]-imidazol-1-ylmethyl]-benzoic acid]	–
< 4.30	< 4.30	CC(C)CC(N[C@@H](Cc1c[nH]cn1)C(N)=O)C(=O)O (single isomer, unassigned) [EW, 2-[1-Carbamoyl-2-(1H-imidazol-4-yl)-ethylamino]4-methyl-pentanoic acid]	–
< 4.30	< 4.30	CC(C)CC(N[C@@H](Cc1cncn1Cc1ccccc1)C(=O)O)C(=O)O (single isomer, unassigned) [FA, 2-[2-(3-Benzyl-3H-imidazol-4-yl)-1-carboxy-ethylamino]-4-methyl-pentanoic acid]	–
< 4.30	< 4.30	CC(=O)N(C(CCc1ccccc1)C(=O)O)[C@@H](CC(C)C)C(=O)O (single isomer, unassigned) [AU, 2-[Acetyl-(1-carboxy-3-phenyl-propyl)-amino]-4-methyl-pentanoic acid]	–
< 4.30	< 4.30	COc1ccc(CCNC(=O)[C@H](Cc2cnc[nH]2)NC(CC(C)C)C(=O)O)cc1 (single isomer, unassigned) [FL, 2-{2-(3H-Imidazol-4-yl)-1-[2-(4-methoxy-phenyl)-ethylcarbamoyl]-ethylamino}4-methyl-pentanoic acid]	–
< 4.30	< 4.30	CC(C)CC(N[C@H](CO)Cc1c[nH]cn1)C(=O)O (single isomer, unassigned) [FP, 2-[1-Hydroxymethyl-2-(1H-imidazol-4-yl)-ethylamino)4-methyl-pentanoic acid]	–
< 4.30	4.30 to 5.00	CC(C)CC(N[C@@H](Cc1cn(Cc2ccc(Cl)cc2)cn1)C(=O)O)C(=O)O (stereo partly shown) [EU, 2-[1-Carboxy-2-[1-(4-chloro-benzyl)-1H-imidazol-4-yl]-ethylamino)4-methyl-pentanoic acid]	–
< 4.30	< 4.30	CC(C)CC(N[C@@H](Cc1cn(Cc2ccccc2)cn1)C(=O)O)C(=O)O (single isomer, unassigned) [DM, 2-[2-(1-Benzyl-1H-imidazol-4-yl)-1-carboxy-ethylamino]-4-methyl-pentanoic acid]	–
< 4.30	< 4.30	O=C(O)C(CCc1ccccc1)N[C@@H](Cc1c[nH]cn1)C(=O)O (stereo partly shown) [ER, 2-[1-Carboxy-2-(1H-imidazol-4-yl)-ethylamino]4-phenyl-butync acid]	–

Compound	pKi (ACE (Sigma, A2580); 12 concentrations)	pKi (Carboxypeptidase A; 12 concentrations)	also measured
2-[2-(3-Benzyl-3H-imidazol-4-yl)-1-carboxy-ethylamino]-butync acid [GG]	< 4.30	< 4.30	–
